According to paper PMC9298352, “Design, Synthesis and Structural Analysis of Glucocerebrosidase Imaging Agents” (Chemistry (Weinheim an Der Bergstrasse, Germany), 2021):

Tests used:
Format in all cases: biochemical
[1] = molecular target: T1, recombinant human GAA (rhGAA, Myozyme) (Homo sapiens, UniProt P10253); experiment: In vitro apparent IC50, fluorogenic substrate assay on rhGAA
T1 construct: purchased Sanofi Genzyme (Cambridge, MA, USA)
Method: All assays were performed in duplicate sets, each with 3 technical replicates at each inhibitor concentration. DMSO concentration was kept at 0.5 %–1 % (v/v) in all assays during incubation with compounds. In vitro apparent IC50 values were calculated by fitting data with [inhibitor] vs. response‐various slope (four parameters) function using Graphpad Prism 7.0 software. Average values and standard deviations were calculated from the two sets.

[2] = molecular target: T2, rhGBA (Homo sapiens, UniProt P04062); experiment: rhGBA titration with constant ABP 6 and ABP 9 (gel-based labelling); conditions: ABP 150 nM, rhGBA 500–0.01 nM, 37 °C, 30 mins
T2 construct: made in house; host or cells: insect-baculovirus expression vector system (BEVS)
T2 sequence (P04062 40-536): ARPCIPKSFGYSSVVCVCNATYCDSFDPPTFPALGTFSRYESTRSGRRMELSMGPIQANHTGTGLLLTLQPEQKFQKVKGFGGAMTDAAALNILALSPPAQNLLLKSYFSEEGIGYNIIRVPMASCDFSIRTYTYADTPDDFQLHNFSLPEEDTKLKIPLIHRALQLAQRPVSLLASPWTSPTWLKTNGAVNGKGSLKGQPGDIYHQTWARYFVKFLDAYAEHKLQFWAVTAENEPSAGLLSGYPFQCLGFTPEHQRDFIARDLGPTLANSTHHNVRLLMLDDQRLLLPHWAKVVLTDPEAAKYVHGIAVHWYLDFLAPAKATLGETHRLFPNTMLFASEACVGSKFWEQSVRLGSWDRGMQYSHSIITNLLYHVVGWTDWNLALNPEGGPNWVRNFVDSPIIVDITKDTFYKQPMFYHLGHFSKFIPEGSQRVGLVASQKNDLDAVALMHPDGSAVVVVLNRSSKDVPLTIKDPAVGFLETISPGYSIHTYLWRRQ
Method: Maximum‐likelihood/σA weighted (2Fo–Fc) electron density map contoured to 1.0 σ (a=1.31 e^−/Å^3). […] Fluorescently labelled rhGBA visualized by Cy5 fluorescent readout. D=denatured protein sample.
rhGBA produced in BEVS[58] was prepared at 500, 250, 100, 50, 10, 1, 0.1 and 0.01 nM in 150 mM McIlvaine buffer pH 5.2 (supplemented with 0.1 % (v/v) Triton X‐100 and 0.2 % (w/v) sodium taurocholate). […] The samples were denatured with Laemmli (x3) sample buffer by heating at 95 °C for 5 minutes and resolved by electrophoresis in 10 % SDS‐PAGE gels, running at 200 V for ∼50 minutes. Wet slab gels were scanned on fluorescence using an Amersham Typhoon 5 Imager (GE Healthcare) with λEX 635 nm; λEM >665 nm.

[3] = molecular target: T3, GBA in mouse brain lysate (Mus musculus, UniProt P17439); experiment: Fluorescent labeling of mouse brain lysate, GBA; conditions: 37 °C
T3 construct: from tissue; host or cells: mouse brain
T3 sequence (P17439 20-515): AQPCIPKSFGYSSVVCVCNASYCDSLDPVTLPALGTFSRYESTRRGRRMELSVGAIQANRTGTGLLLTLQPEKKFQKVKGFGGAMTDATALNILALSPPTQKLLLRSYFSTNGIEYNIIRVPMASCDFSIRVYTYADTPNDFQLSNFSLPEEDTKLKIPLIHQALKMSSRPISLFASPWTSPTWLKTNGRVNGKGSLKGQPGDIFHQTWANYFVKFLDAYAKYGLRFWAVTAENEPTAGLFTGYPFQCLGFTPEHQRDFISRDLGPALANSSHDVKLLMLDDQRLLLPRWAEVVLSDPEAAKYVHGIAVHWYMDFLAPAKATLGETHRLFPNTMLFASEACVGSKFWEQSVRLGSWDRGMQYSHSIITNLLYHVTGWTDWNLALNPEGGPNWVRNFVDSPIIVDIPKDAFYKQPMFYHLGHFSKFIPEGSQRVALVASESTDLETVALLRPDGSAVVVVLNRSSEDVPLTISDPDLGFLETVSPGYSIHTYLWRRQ
Method: We next investigated their labeling efficiency and selectivity toward GBA in mouse brain lysate at pH 5.2 (containing 0.2 % taurocholate and 0.1 % Triton‐100) and pH 5.8 as respective optimal conditions for GBA and GBA2 activities (Figure 7). […] Importantly, no labelling of GBA2 was observed up to 1000 nM, showing good GBA selectivity.
Labeling by broad‐spectrum β‐glucosidase ABP 8 is shown for comparison (100 nM, pH 5.2 or pH 5.8, 30 min, 37 °C).
Fluorescent labeling with broad‐spectrum ABP 8 was performed at 100 nM ABP concentration at 37 °C for 30 min at pH 5.2 (with 0.1 % (v/v) Triton X‐100 and 0.2 % (w/v) sodium taurocholate) or pH 5.8 respectively. Samples were then denatured with 4 μL Laemmli (5x) sample buffer and heated at 98 °C for 5 minutes. Proteins were resolved by electrophoresis in 10 % SDS‐PAGE gels, running at a constant of 90 V for 30 minutes followed by 120 V for approximately 60 minutes. Wet slab gels were scanned on fluorescence using a Typhoon FLA9500 Imager (GE Healthcare) using λEX 635 nm; λEM >665 nm and images were processed using ImageLab 5.2.1 (BioRad).

CCCCCCCCN1[C@@H]2[C@H](Cn3cc(CNC(=O)CCCCC[N+]4=C(/C=C/C=C/C=C5/N(C)c6ccccc6C5(C)C)C(C)(C)c5ccccc54)nn3)[C@@H](O)[C@H](O)[C@@H](O)[C@@H]21 (stereo partly shown) [ABP 6]
IC50 [1]: > 100 µM | lowest rhGBA concentration labelled [2]: 1 nM | ABP concentration with significant labeling of GBA ([3]; pH 5.2 with 0.2 % taurocholate and 0.1 % Triton, 30 min): 10 nM | ABP concentration with significant labeling of GBA ([3]; pH 5.8, 30 min): 1000 nM
